What was measured:
Assay type in all cases: binding
RXFP3 = biological target: T1, RXFP3 (Homo sapiens, UniProt Q9NSD7); experiment: NanoBRET screen HiBiT-RXFP3 in HEK293
T1 construct: purchased Promega (in-house HiBiT-GPCR construct library, NanoBRET)
T1 sequence (Q9NSD7 1-469): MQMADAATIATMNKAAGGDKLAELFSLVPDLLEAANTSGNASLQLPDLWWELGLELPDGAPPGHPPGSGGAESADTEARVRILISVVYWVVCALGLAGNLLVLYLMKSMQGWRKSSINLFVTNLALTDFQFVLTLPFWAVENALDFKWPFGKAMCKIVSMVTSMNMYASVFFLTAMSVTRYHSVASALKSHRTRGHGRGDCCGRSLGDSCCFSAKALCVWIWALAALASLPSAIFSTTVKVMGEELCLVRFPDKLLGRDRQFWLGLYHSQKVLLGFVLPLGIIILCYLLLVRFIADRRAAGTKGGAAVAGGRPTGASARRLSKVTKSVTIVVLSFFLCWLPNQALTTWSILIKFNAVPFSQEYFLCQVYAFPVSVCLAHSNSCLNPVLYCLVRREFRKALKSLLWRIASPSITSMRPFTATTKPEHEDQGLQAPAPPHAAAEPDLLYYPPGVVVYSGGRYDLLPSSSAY
Procedure: (§1) Each tracer candidate was screened across the entire library of HiBiT-GPCR constructs using NanoBRET as the detection modality. As depicted in Figure 4A, the specificity of interactions was evaluated through decrease in BRET due to competitive displacement of a bound tracer by excess parental compound. Each tracer was analyzed for binding to each HiBiT-GPCR fusion in the absence and in the presence of competing parental compound. Briefly, HEK293 cells were transfected with HiBiT-GPCR constructs diluted into promoterless DNA to reduce expression and maximize translocation to the cell surface. Each tracer candidate was then screened at concentrations of 1 μM and 0.1 μM across cells expressing these fusions. Cells were treated for 1.5 h with tracer either alone or in the presence of 20 μM competing parental compound (i.e., control). BRET was measured upon addition of purified LgBiT and subsequent complementation with HiBiT genetically fused to a GPCR. The specificity of interactions was assessed through a decrease in BRET signal due to competitive displacement of the bound tracer. To further gauge the robustness of these interactions, the fold response over the control (i.e., BRETtracer/BRETcontrol) was calculated. We chose a 1.5-fold response, which translates to ≥7-fold signal over noise as the minimal threshold required to score an interaction as positive. […]. Below we highlight the screening results obtained for our exemplary fluorescent tracers based on Clozapine, Amitriptyline and AZD1283.
(§2) HiBiT-GPCR DNA constructs were diluted in 10 mM Tris pH 8 to a final concentration of 0.01 μg/μL, arrayed in 96-well plates and stored at −20 °C. For transfection, HEK293 cells were suspended in Opti-MEM (without phenol red) supplemented with 2% fetal bovine serum (Seradigm) and 100 units/mL penicillin–streptomycin (Gibco) at a final concentration of 220,000 cells/mL and dispensed into white 96-well plates at 90 μL/well. Subsequent transfections and screens were carried using an Agilent Bravo Automated Liquid Handling Platform. First, the 96-well HiBiT DNA arrays were diluted 25-fold in Opti-MEM (without serum or phenol red) to a final concentration of 0.0004 μg/μL and 20 μL of the diluted DNAs were transferred into new 96-well plates. Next, promoterless carrier DNA (1 μg/μL) was diluted 25-fold (0.04 μg/μL) and then dispensed into the diluted arrays at 20 μL/well. Following brief mixing, Viafect transfection reagent (Promega) diluted 16-fold into Opti-MEM was dispensed into the plates at 40 μL/well. After mixing by pipetting, plates were incubated for 10 min on the pipetting station deck. The DNA-transfection reagent complexes were then added to plates containing cells. To facilitate the screen, 10 μL of DNA-transfection reagent complexes were added in duplicates to the top 4 and bottom 4 rows, resulting in two identical 48-well arrays per plate. Plates with transfected cells were incubated for 18–20 h at 37 °C/5% CO2. A screen of each tracer across the entire library using two different concentrations requires duplicate plates of transfected cells. Depending on the number of tracers being screened, transfections can be scaled up using the same ratios. The next day, for each tracer, four 20× screening solutions in tracer dilution buffer (Promega) were prepared: two duplicates at final concentration of 20 μM and two duplicates at a final concentration of 2 μM. A competing unmodified compound was added to one of each duplicate at a final concentration of 400 μM. The four resulting solutions were diluted 4-fold in Opti-MEM without serum or phenol red to generate 5× solutions (5 µM and 0.5 µM tracer +/− 100 μM competing compound). To screen the library, a BioTek MultiFlo FX liquid dispenser was used to dispense 22.5 µL of tracer solution to the top 4 rows and 22.5 µL tracer + competing compound solution to the 4 bottom rows. Plates were briefly mixed on an orbital shaker and incubated for 1.5 h at room temperature. […]

CX3CR1 = biological target: T2, CX3CR1 (Homo sapiens, UniProt P49238); experiment: NanoBRET screen HiBiT-CX3CR1 in HEK293
T2 construct: purchased Promega (in-house HiBiT-GPCR construct library, NanoBRET)
T2 sequence (P49238 1-355): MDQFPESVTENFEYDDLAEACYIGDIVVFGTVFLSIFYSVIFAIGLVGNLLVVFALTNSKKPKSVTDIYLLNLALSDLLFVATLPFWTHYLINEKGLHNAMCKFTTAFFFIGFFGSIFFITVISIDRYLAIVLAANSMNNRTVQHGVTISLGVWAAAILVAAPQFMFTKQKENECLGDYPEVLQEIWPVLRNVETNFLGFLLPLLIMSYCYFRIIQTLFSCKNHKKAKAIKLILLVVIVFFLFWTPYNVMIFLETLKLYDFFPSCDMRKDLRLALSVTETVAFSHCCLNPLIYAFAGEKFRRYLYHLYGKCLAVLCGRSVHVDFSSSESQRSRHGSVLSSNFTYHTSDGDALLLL
Procedure: as §1, §2

CCR4 = biological target: T3, CCR4 (Homo sapiens, UniProt P51679); experiment: NanoBRET screen HiBiT-CCR4 in HEK293
T3 construct: purchased Promega (in-house HiBiT-GPCR construct library, NanoBRET)
T3 sequence (P51679 1-360): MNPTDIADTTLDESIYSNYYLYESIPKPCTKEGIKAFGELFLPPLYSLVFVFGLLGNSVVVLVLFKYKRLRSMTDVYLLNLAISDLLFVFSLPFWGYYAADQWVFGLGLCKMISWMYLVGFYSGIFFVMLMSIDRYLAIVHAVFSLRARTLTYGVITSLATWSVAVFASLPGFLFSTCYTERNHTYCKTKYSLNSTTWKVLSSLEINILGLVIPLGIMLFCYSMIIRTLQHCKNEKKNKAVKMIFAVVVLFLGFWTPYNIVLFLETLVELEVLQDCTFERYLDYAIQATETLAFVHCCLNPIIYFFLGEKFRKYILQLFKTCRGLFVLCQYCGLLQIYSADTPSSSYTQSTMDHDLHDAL
Procedure: as §1, §2

SMILES	NanoBRET Fold Response (RXFP3; RXFP3, 0.1μM tracer)	NanoBRET Fold Response (RXFP3; RXFP3, 1μM tracer)	NanoBRET Fold Response (CX3CR1; CX3CR1, 0.1μM tracer)	NanoBRET Fold Response (CCR4; CCR4, 0.1μM tracer)	NanoBRET Fold Response (CCR4; CCR4, 1μM tracer)	NanoBRET Fold Response (RXFP3; RXFP3, tracer 0.1μM)	NanoBRET Fold Response (CX3CR1; CX3CR1, tracer 0.1μM)	NanoBRET Fold Response (CX3CR1; CX3CR1, tracer 1μM)	NanoBRET Fold Response (CCR4; CCR4, tracer 0.1μM)	NanoBRET Fold Response (CCR4; CCR4, tracer 1μM)	other results
COc1ccc2[nH]c(-c3ccc(CNC(=O)CCOCCOCCOCCOCCNC(=O)CCc4ccc5n4[B-](F)(F)[N+]4=C(c6ccc[nH]6)C=CC4=C5)cc3)c(CCNC(C)=O)c2n1 [AzomelatoninICO9-2-NB590]											NanoBRET Fold Response (RXFP3; 0.1μM tracer): 0.89; NanoBRET Fold Response (RXFP3; 1μM tracer): 1.22; NanoBRET Fold Response (CX3CR1; 0.1μM tracer): 1.07; NanoBRET Fold Response (CX3CR1; 1μM tracer): 1.19; NanoBRET Fold Response (CCR4; 0.1μM tracer): 1.23; NanoBRET Fold Response (CCR4; 1μM tracer): 0.96
O=C(CCOCCOCCOCCOCCNC(=O)CCc1ccc2n1[B-](F)(F)[N+]1=C(c3ccc[nH]3)C=CC1=C2)NCCCN1CCN(C2=Nc3cc(Cl)ccc3Nc3ccccc32)CC1 [Clozapine-a-2-NB590]	1.04	0.96	1.08	1.05	0.85						NanoBRET Fold Response (CX3CR1; CX3CR1, 1μM tracer): 1.07
CN1CCN(C2=Nc3cc(Cl)ccc3Nc3ccc(CNC(=O)CCOCCOCCOCCOCCNC(=O)CCc4ccc5n4[B-](F)(F)[N+]4=C(c6ccc[nH]6)C=CC4=C5)cc32)CC1 [Clozapine-b-2-NB590]	0.99	1.04	0.98	1.04	0.96						
CN1CCN(C2=Nc3cc(Cl)ccc3N(CC(=O)NCCOCCOCCOCCOCCNC(=O)CCc3ccc4n3[B-](F)(F)[N+]3=C(c5ccc[nH]5)C=CC3=C4)c3ccccc32)CC1 [Clozapine-c-2-NB590]	0.99	1.05	0.95	0.97	0.72						NanoBRET Fold Response (CX3CR1; CX3CR1, 1μM tracer): 0.92
O=C(CCOCCOCCOCCOCCNC(=O)CCc1ccc2n1[B-](F)(F)[N+]1=C(c3ccc[nH]3)C=CC1=C2)NCCCN1CCN(C2=Nc3ccccc3Oc3ccc(Cl)cc32)CC1 [Loxapine-a-2-NB590]						1.11	1.05	0.91	1.03	1.19	NanoBRET Fold Response (RXFP3; RXFP3, tracer 1μM): 1.22
COc1ccccc1N1CCN(CCCCN2C(=O)c3ccc(CNC(=O)CCOCCOCCOCCOCCNC(=O)CCc4ccc5n4[B-](F)(F)[N+]4=C(c6ccc[nH]6)C=CC4=C5)cc3C2=O)CC1 [NAN-190-2-NB590]						1.02	0.99	0.86	0.98	1.12	
COc1ccccc1N1CCN(CCCCN2C(=O)c3ccc(CNC(=O)CCOCCNC(=O)c4ccc(CNC(=O)CCc5ccc6n5[B-](F)(F)[N+]5=C(c7ccc[nH]7)C=CC5=C6)cc4)cc3C2=O)CC1 [NAN-190-3-NB590]						1.08	0.90	1.01	0.85	1.11	NanoBRET Fold Response (RXFP3; RXFP3, tracer 1μM): 0.95
